Test results published in patent publication US20250215039A1, “NUCLEOSIDES FOR TREATING CANCER” (PRIMEFOUR THERAPEUTICS, INC., priority 2022, published 2025).
pIC50: −log10 of the molar value. Where two headings read alike, the source gives them in different places.

Tested on: cancer cell lines
Assay: Cancer cell proliferation activity (CellTiterGlo, 72 h)
Type: cell-based
Settings: 72 h, 72 h, read-out: IC50
Outline: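 Cells seeded overnight at 37 °C, then dosed with compound at 0.1% final DMSO and incubated 72 h at 37 °C (5% or 10% CO2 by medium).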

## CCC[C@]1(CO)O[C@@H](n2cnc3c(N)nc(F)nc32)C[C@@H]1O [Cpd. No. 129, (2R,3S,5R)-5-(6-amino-2-fluoro-9H-purin-9-yl)-2-(hydroxymethyl)-2-propyltetrahydrofuran-3-ol]
5637 cell line (bladder)
  pIC50: 6.25
AS49 cell line (lung)
  pIC50: 5.52
CLS439 cell line (bladder)
  pIC50: 5.49
HS729 cell line (muscle)
  pIC50: 6.06
JAR cell line (placenta)
  pIC50: 6.49
Homo sapiens, 22Rv1, 72 h, 22RV1 cell line (prostate)
  pIC50: 5.97
Homo sapiens, 786-0, 72 h, 786O cell line (kidney)
  pIC50: 6.52
Homo sapiens, A204, 72 h, A204 cell line (muscle)
  pIC50: 6.66
Homo sapiens, A673, 72 h, A673 cell line (bone)
  pIC50: 5.84
Homo sapiens, A2780, 72 h, A2780 cell line (ovary)
  pIC50: 6.13
Homo sapiens, A-375, 72 h, A375 cell line (skin)
  pIC50: 6.70
Homo sapiens, A-431, 72 h, A431 cell line (skin)
  pIC50: 6.48
Homo sapiens, ACHN, ACHN cell line (kidney)
  pIC50: 5.60
Homo sapiens, ASPC1, 72 h, ASPC1 cell line (pancreas)
  pIC50: 6.66
Homo sapiens, BT-20, 72 h, BT20 cell line (breast)
  pIC50: 6.47
Homo sapiens, BXPC-3, 72 h, BXPC3 cell line (pancreas)
  pIC50: 5.60
Homo sapiens, C-33-A, C33A cell line (cervical)
  pIC50: 6.20
Homo sapiens, CAKI-1, 72 h, CAKI1 cell line (kidney)
  pIC50: 7.70
Homo sapiens, COLO 205, 72 h, COLO205 cell line (colon)
  pIC50: 6.12
Homo sapiens, COLO-678, 72 h, COLO678 cell line (colon)
  pIC50: 5.70
Homo sapiens, Ca-Ski, CASKI cell line (cervical)
  pIC50: 6.80
Homo sapiens, Caco-2, 72 h, CACO2 cell line (colon)
  pIC50: 6.21
Homo sapiens, Calu-6, 72 h, CALU6 cell line (lung)
  pIC50: 6.52
Homo sapiens, DLD-1, 72 h, DLD1 cell line (colon)
  pIC50: 5.69
Homo sapiens, DU-145, 72 h, DU145 cell line (prostate)
  pIC50: 6.92
Homo sapiens, EFO-21, 72 h, EFO21 cell line (ovary)
  pIC50: 6.48
Homo sapiens, EJ-28, 72 h, EJ28 cell line (bladder)
  pIC50: 6.66
Homo sapiens, Granta-519, 72 h, GRANTA-519 cell line (hematological)
  pIC50: 5.59
Homo sapiens, HCT-15, 72 h, HCT15 cell line (colon)
  pIC50: 5.84
Homo sapiens, HCT-116, 72 h, HCT116 cell line (colon)
  pIC50: 6.32
Homo sapiens, HEK293, 72 h, HEK293 cell line (kidney)
  pIC50: 6.42
Homo sapiens, HL-60, 72 h, HL-60 cell line (hematological)
  pIC50: 6.48
Homo sapiens, HT-29, 72 h, HT29 cell line (colon)
  pIC50: 6.66
Homo sapiens, HT-1080, 72 h, HT1080 cell line (connective tissue)
  pIC50: 5.44
Homo sapiens, HeLa, HELA cell line (cervical)
  pIC50: 6.36
Homo sapiens, HepG2, 72 h, HEPG2 cell line (liver)
  pIC50: 6.52
Homo sapiens, Hs-578T, HS578T cell line, breast
  pIC50: 6.26
Homo sapiens, IGROV-1, 72 h, IGROV1 cell line (ovary)
  pIC50: 6.70
Homo sapiens, IMR-90, 72 h, IMR90 cell line, lung
  pIC50: 6.39
Homo sapiens, J82, 72 h, J82 cell line (bladder)
  pIC50: 6.33
Homo sapiens, JEG-3, 72 h, JEG3 cell line (placenta)
  pIC50: 6.54
Homo sapiens, JIMT-1, 72 h, JIMT1 cell line (breast)
  pIC50: 7.10
Homo sapiens, K562, 72 h, K-562 cell line (hematological)
  pIC50: 5.27
Homo sapiens, Kasumi 1, 72 h, KASUMI-1 cell line (hematological)
  pIC50: 7.22
Homo sapiens, L-363, 72 h, L-363 cell line (hematological)
  pIC50: 6.54
Homo sapiens, LoVo, LOVO cell line (colon)
  pIC50: 6.85
Homo sapiens, MCF7, 72 h, MCF7 cell line (breast)
  pIC50: 5.01
Homo sapiens, MDA-MB-231, 72 h, MDAMB231 cell line (breast)
  pIC50: 5.55
Homo sapiens, MDA-MB-435, 72 h, MDAMB435 cell line (skin)
  pIC50: 5.85
Homo sapiens, MDA-MB-436, 72 h, MDAMB436 cell line (breast)
  pIC50: 6.72
Homo sapiens, MDA-MB-468, 72 h, MDAMB468 cell line (breast)
  pIC50: 6.57
Homo sapiens, MG-63, 72 h, MG63 cell line (bone)
  pIC50: < 4.30
Homo sapiens, MHH-ES-1, 72 h, MHHES1 cell line (bone)
  pIC50: 6.40
Homo sapiens, MIA PaCa-2, 72 h, MIAPACA2 cell line (pancreas)
  pIC50: < 4.30
Homo sapiens, MINO, MINO cell line (hematological)
  pIC50: 6.82
Homo sapiens, MV4-11, 72 h, MV4-11 cell line (hematological)
  pIC50: 7.30
Homo sapiens, NCI-H23, 72 h, NCI-H23 cell line (lung)
  pIC50: 6.39
Homo sapiens, NCI-H82, 72 h, NCIH82 cell line (lung)
  pIC50: 6.41
Homo sapiens, NCI-H292, 72 h, NCIH292 cell line (lung)
  pIC50: 5.38
Homo sapiens, NCI-H460, 72 h, NCIH460 cell line (lung)
  pIC50: 6.30
Homo sapiens, OVCAR-3, 72 h, OVCAR3 cell line (ovary)
  pIC50: 6.77
Homo sapiens, OVCAR-4, 72 h, OVCAR4 cell line (ovary)
  pIC50: 6.25
Homo sapiens, PANC-1, 72 h, PANC1 cell line (pancreas)
  pIC50: < 4.30
Homo sapiens, PC-3, 72 h, PC3 cell line (prostate)
  pIC50: 6.33
Homo sapiens, PLC-PRF-5, 72 h, PLCPRF5 cell line (liver)
  pIC50: 5.69
Homo sapiens, Panc1005, 72 h, PANC1005 cell line (pancreas)
  pIC50: 6.64
Homo sapiens, RD, RD cell line (muscle)
  pIC50: 6.19
Homo sapiens, Ramos, RAMOS cell line (hematological)
  pIC50: 6.28
Homo sapiens, SAOS-2, 72 h, SAOS2 cell line (bone)
  pIC50: 6.52
Homo sapiens, SF-268, 72 h, SF268 cell line (brain)
  pIC50: 5.30
Homo sapiens, SF-295, 72 h, SF295 cell line (brain)
  pIC50: 5.78
Homo sapiens, SK-BR-3, 72 h, SKBR3 cell line (breast)
  pIC50: 7.30
Homo sapiens, SK-HEP1, 72 h, SKHEP1 cell line (liver)
  pIC50: 5.62
Homo sapiens, SK-LMS-1, 72 h, SKLMS1 cell line (uterus)
  pIC50: 6.52
Homo sapiens, SK-MEL-5, 72 h, SKMEL5 cell line, skin
  pIC50: 5.50
Homo sapiens, SK-MEL-28, 72 h, SKMEL28 cell line (skin)
  pIC50: 6.17
Homo sapiens, SK-N-AS, SKNAS cell line (brain)
  pIC50: 6.43
Homo sapiens, SK-N-SH, SKNSH cell line (brain)
  pIC50: 6.59
Homo sapiens, SK-OV-3, 72 h, SKOV3 cell line (ovary)
  pIC50: 6.34
Homo sapiens, SNB-75, 72 h, SNB75 cell line (brain)
  pIC50: 5.86
Homo sapiens, SU-DHL10, 72 h, SU-DHL-10 cell line (hematological)
  pIC50: 6.34
Homo sapiens, SU-DHL-6, 72 h, SU-DHL-6 cell line (hematological)
  pIC50: 6.62
Homo sapiens, SW-620, 72 h, SW620 cell line (colon)
  pIC50: 6.44
Homo sapiens, T-24, 72 h, T24 cell line (bladder)
  pIC50: 6.22
Homo sapiens, TE-671, 72 h, TE671 cell line (muscle)
  pIC50: 5.61
Homo sapiens, THP-1, 72 h, THP-1 cell line (hematological)
  pIC50: 5.64
Homo sapiens, U2OS, U2OS cell line (bone)
  pIC50: 6.29
Homo sapiens, U-87 MG, U87MG cell line (brain)
  pIC50: 5.50
Homo sapiens, UMUC3, 72 h, UMUC3 cell line (bladder)
  pIC50: 5.52
Homo sapiens, UO-31, 72 h, UO31 cell line (kidney)
  pIC50: 6.62
Homo sapiens, WSU-NHL, WSU-NHL cell line (hematological)
  pIC50: 6.34
MT-3, 72 h, MT3 cell line (breast)
  pIC50: 6.55
NCI-H358M, NCIH358M cell line (lung)
  pIC50: 6.57
PBMC, PBMC (hematological)
  pIC50: < 4.30
RD-ES, RDES cell line (bone)
  pIC50: 6.60
